The record followed here is US10792265B2, “Methods of treating or preventing fibrotic lung diseases” (YALE UNIVERSITY, priority 2014, dated 2020).

“Also recorded” adds a separate entry of the source.

Data set [1] has as its system bleomycin-induced fibrosis in mice. The experiment in a line: Bleomycin-induced lung fibrosis model in mice (hydroxyproline, collagen, qRT-PCR of fibrotic genes, Masson trichrome). In kind it is in vivo. In general terms: Real-time PCR tracks product formation cycle by cycle.
A short description of data set [2]: T3 and TSH level in the sera of treated bleomycin mice (ELISA). In kind it is in vivo. On the technique in general: In an ELISA, binding on a coated surface is turned into a signal by an enzyme label.
The test system of data set [3] is bleomycin-induced mortality. The experiment in a line: Bleomycin-induced mortality by Kaplan-Meier survival curve analysis. In kind it is in vivo, mice. The following applies: bleomycin 4.5 U/kg intratracheally day 0; T3 40 μg/kg nebulized and inhaled every other day since day 7 (FIG. 5F). Here is the method:
40 μg/kg of T3 was nebulized and inhaled day 10, 12, 14, 16 after bleomycin treatment at dose of 1.5 U/kg, Saline as control. Mice were sacrificed at day 21. […] FIG. 5B: Col1a1 mRNA expression was detected by QRT-PCR (n=8 in each group). FIG. 5C: Col3a1 mRNA expression was detected by QRT-PCR. […] FIG. 5F: Bleomycin-induced mortality by Kaplan-Meier survival curve analysis. 4.5 U/kg of bleomycin was delivered intratracheally at day 0, 40 μg/kg of T3 was nebulized and inhaled every other day since day 7, saline treatment as control group.

In data set [4] the test system is alveolar epithelial cells isolated from bleomycin injured lungs. The experiment in a line: Gene expression analysis in alveolar epithelial cells isolated from bleomycin injured lungs before and after T3 aerosolized delivery. Type of data set: in vivo. The source says:
Experiments were run to delineate a potential mechanistic pathway through which thyroid hormones exert their protective role in the development and progression of experimental lung fibrosis. […] Similar experiments were run in A549 lung adenocarcinoma cell lines before and after thyroid hormone administration.

Setting [5] is: treatment injected at day 3 after bleomycin, sacrificed day 14 (FIG. 4A).
[6] abbreviates: treatment injected at day 7 after bleomycin, sacrificed day 14 (FIG. 4C).

For the compound `CCCc1cc(=O)[nH]c(=S)[nH]1` [PTU, propylthiouracil], the “Bleomycin-induced lung fibrosis (overall severity)” value in data set [1] (bleomycin 1.5 U/Kg intratracheally, PTU 100 mg/kg intraperitoneally at day 3 and day 7, sacrificed day 14) is “more severe bleomycin-induced lung fibrosis; also recorded: aggravates fibrosis”. In addition, the “Hydroxyproline content in the right lungs” value in data set [1] (bleomycin 1.5 U/Kg, PTU 100 mg/kg intraperitoneally day 3 and day 7, day 14 (FIG. 3A)) is recorded as “significant elevation”. For the same compound, the “Collagen content in the right lungs” value in data set [1] (bleomycin 1.5 U/Kg, PTU 100 mg/kg intraperitoneally day 3 and day 7, day 14 (FIG. 3B)) was “significant elevation”. Besides, the Hydroxyproline measurements entry in data set [1] (setting [5]) and in data set [1] (setting [6]) was “significant increase” throughout.
Consider `N[C@@H](Cc1cc(I)c(Oc2cc(I)c(O)c(I)c2)c(I)c1)C(=O)O` [T4, (S)-2-amino-3-[4-(4-hydroxy-3,5-diiodophenoxy)-3,5-diiodophenyl]propanoic acid], for which the “Circulating levels of T3” value in data set [2] (after T4 systemic administration in bleomycin mice, n=10, p<0.05 (FIG. 4E)) is reported as “statistically significant increase”. For the same compound, the “Pulmonary fibrosis / fibrotic process (fibrotic markers and structural changes)” value in data set [1] (T4 after bleomycin instillation, intraperitoneal, 40 mg/kg or 50 mg/kg, sacrificed day 14) was “significant attenuation of the fibrotic process; also recorded: attenuates the pulmonary fibrosis”. The “Gene expressions of Col1a1, Col3a1, S100a4 and Acta2 (QRT-PCR)” value in data set [1] (T4 injected at day 3 after bleomycin, n=8, p<0.05 (FIG. 4B)) is “markedly suppresses”; in data set [1] (T4 injected at day 7 after bleomycin, n=8, p<0.05 (FIG. 4D)) it was “significantly suppresses”. In addition, in data set [1] (T4 treatment at either day 3 or day 7 (FIG. 4G)), the “Fibrotic and inflammatory response to bleomycin, histological examination by masson trichrome staining” value was “attenuated”. In addition, the Hydroxyproline measurements result in data set [1] (setting [5]) and in data set [1] (setting [6]) was “no statistically significant reduction; also recorded: no statistical difference in the T4 treated group from the saline group” each time.
For the compound `N[C@@H](Cc1cc(I)c(Oc2ccc(O)c(I)c2)c(I)c1)C(=O)O` [T3, (S)-2-amino-3-[4-(4-hydroxy-3-iodophenoxy)-3,5-diiodophenyl]propanoic acid], the “Survival / bleomycin-induced mortality (Kaplan-Meier)” value in data set [3] was “significant increase in survival; also recorded: reduces mortality”. In data set [2] (after T3 inhalation 40 μg/kg in bleomycin mice, n=10 (FIG. 5D)), the “T3 level in the sera by ELISA” value was “does not affect the level of T3”. In addition, in data set [4], the “Gene expression in alveolar epithelial cells” value is recorded as “upregulation of several anti-apoptotic genes”. Moreover, in data set [1] (T3 40 μg/kg nebulized and inhaled day 10, 12, 14, 16 after bleomycin 1.5 U/kg, sacrificed day 21), the “Bleomycin-induced fibrosis (overall)” value is listed as “blunts bleomycin-induced fibrosis”. Besides, the Hydroxyproline content entry in data set [1] (T3 inhalation 40 μg/kg day 10, 12, 14, 16 after bleomycin 1.5 U/kg, day 21 (FIG. 5A)) was “statistically significant blunting; also recorded: declines hydroxyproline content”.
